Target: T1, estrogen receptor (ER) (Homo sapiens, UniProt P03372)
T1 construct: expressed in transfected cells; host or cells: CHO cells (cytosol)
T1 sequence (P03372 1-595): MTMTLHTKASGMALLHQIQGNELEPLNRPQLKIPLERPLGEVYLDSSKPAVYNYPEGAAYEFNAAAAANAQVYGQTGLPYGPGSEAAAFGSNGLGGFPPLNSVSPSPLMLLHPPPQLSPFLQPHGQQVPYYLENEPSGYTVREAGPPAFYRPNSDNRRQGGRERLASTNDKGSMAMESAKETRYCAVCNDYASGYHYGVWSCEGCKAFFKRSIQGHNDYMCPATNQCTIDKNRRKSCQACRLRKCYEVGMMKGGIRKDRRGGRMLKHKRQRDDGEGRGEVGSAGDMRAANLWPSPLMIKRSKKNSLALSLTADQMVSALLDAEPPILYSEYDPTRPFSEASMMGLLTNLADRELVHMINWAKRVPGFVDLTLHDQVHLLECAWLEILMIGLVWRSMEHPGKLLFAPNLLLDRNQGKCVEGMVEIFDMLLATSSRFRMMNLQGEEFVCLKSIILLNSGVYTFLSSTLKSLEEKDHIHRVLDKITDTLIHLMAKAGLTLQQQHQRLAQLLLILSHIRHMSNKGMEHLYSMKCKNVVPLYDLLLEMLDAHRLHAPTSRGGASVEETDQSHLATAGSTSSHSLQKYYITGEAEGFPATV
Experiment: Receptor Binding Assay: competition with [3H]17β-estradiol, cytosol of CHO cells overexpressing the estrogen receptor
Conditions: 0.8 nM [3H]17β-estradiol, 12 competitor concentrations, room temperature 2.5 h, CHO cell cytosol

SMILES: CC1(C)c2cc(O)ccc2N(Cc2ccc(OCCN3CCCCCC3)cc2)C1c1ccc(O)cc1 (stereo not shown) [Example No. 11, 1-[4-(2-Azepan-1-yl-ethoxy)-benzyl]-2-(4-hydroxy-phenyl)-3,3-dimethyl-2,3-dihydro-1H-indol-5-ol]
- IC50: 350 nM
